Activity calls are given as the source filed them. The calls are words filed in the database; no cut-off is given here.
Key:
[1] = Induction of apoptosis in human HepG2/ADM cells assessed as late apoptotic cells at 20 uM incubated for 72 hrs by Annexin V-FITC/SYTOX Red staining based flow cytometric analysis (Rvb =0.04%); type: functional
[2] = Induction of apoptosis in human HepG2/ADM cells assessed as necrotic cells at 20 uM incubated for 72 hrs in presence of ADM by Annexin V-FITC/SYTOX Red staining based flow cytometric analysis (Rvb =0.1%); type: functional
L02 = experiment: Cytotoxicity against human L02 cells assessed as cell growth inhibition incubated for 72 hrs by MTT assay; type: cell-based; conditions: L02, 72 h
NIH3T3 = experiment: Cytotoxicity against mouse NIH/3T3 cells assessed as cell growth inhibition incubated for 72 hrs by MTT assay; type: cell-based; conditions: NIH3T3, 72 h
[3] = Induction of apoptosis in human HepG2/ADM cells assessed as early apoptotic cells at 20 uM incubated for 72 hrs in presence of ADM by Annexin V-FITC/SYTOX Red staining based flow cytometric analysis (reference value: 8.58%); type: functional
HepG2 = experiment: Cytotoxicity against human HepG2 cells assessed as cell growth inhibition incubated for 72 hrs by MTT assay; type: functional, cell-based; conditions: HepG2, 72 h
[4] = Induction of apoptosis in human HepG2/ADM cells assessed as necrotic cells at 20 uM incubated for 72 hrs by Annexin V-FITC/SYTOX Red staining based flow cytometric analysis (Rvb =0%); type: functional
[5] = Induction of apoptosis in human HepG2/ADM cells assessed as viable cell at 20 uM incubated for 72 hrs by Annexin V-FITC/SYTOX Red staining based flow cytometric analysis (reference value: 94.4%); type: functional
[6] = Induction of apoptosis in human HepG2/ADM cells assessed as viable cells at 20 uM incubated for 72 hrs in presence of ADM by Annexin V-FITC/SYTOX Red staining based flow cytometric analysis (reference value: 88.7%); type: functional; conditions: read-out: Activity
[7] = Cytotoxicity against human HepG2/ADM cells assessed as cell growth inhibition incubated for 72 hrs by MTT assay; type: functional, cell-based
[8] = Induction of apoptosis in human HepG2/ADM cells assessed as apoptotic cells at 20 uM incubated for 72 hrs in presence of ADM by Annexin V-FITC/SYTOX Red staining based flow cytometric analysis (reference value: 2.60%); type: functional
[9] = Induction of apoptosis in human HepG2/ADM cells assessed as early apoptotic cells at 20 uM incubated for 72 hrs by Annexin V-FITC/SYTOX Red staining based flow cytometric analysis (reference value: 5.52%); type: functional
[10] = Potency index, ratio of IC50 for human HepG2/ADM cells to IC50 for human HepG2 cells; type: functional
HepG2/Adm [11] = experiment: Downregulation of Pgp in human HepG2/ADM cells at 20 uM incubated for 48 hrs by flow cytometric analysis; type: functional, cell-based
HepG2/Adm [12] = experiment: Downregulation of Pgp in human HepG2/ADM cells at 5 to 20 uM incubated for 48 hrs by Western blot analysis; type: functional, cell-based
[13] = Drug localization in cellular membrane of human HepG2/ADM cells at 20 uM incubated for 2 hrs by mitotracker 633 staining based inverted confocal microscope; type: ADME, cell membranes
[14] = biological target: T1, ATP-dependent translocase ABCB1 (Homo sapiens, UniProt P08183); experiment: Inhibition of Pgp in human HepG2/ADM cells assessed as increase in intracellular ADM level at 20 uM incubated for 2 hrs by mitotracker 633 staining based inverted confocal microscopic analysis; type: cell-based
T1 sequence (P08183 whole entry): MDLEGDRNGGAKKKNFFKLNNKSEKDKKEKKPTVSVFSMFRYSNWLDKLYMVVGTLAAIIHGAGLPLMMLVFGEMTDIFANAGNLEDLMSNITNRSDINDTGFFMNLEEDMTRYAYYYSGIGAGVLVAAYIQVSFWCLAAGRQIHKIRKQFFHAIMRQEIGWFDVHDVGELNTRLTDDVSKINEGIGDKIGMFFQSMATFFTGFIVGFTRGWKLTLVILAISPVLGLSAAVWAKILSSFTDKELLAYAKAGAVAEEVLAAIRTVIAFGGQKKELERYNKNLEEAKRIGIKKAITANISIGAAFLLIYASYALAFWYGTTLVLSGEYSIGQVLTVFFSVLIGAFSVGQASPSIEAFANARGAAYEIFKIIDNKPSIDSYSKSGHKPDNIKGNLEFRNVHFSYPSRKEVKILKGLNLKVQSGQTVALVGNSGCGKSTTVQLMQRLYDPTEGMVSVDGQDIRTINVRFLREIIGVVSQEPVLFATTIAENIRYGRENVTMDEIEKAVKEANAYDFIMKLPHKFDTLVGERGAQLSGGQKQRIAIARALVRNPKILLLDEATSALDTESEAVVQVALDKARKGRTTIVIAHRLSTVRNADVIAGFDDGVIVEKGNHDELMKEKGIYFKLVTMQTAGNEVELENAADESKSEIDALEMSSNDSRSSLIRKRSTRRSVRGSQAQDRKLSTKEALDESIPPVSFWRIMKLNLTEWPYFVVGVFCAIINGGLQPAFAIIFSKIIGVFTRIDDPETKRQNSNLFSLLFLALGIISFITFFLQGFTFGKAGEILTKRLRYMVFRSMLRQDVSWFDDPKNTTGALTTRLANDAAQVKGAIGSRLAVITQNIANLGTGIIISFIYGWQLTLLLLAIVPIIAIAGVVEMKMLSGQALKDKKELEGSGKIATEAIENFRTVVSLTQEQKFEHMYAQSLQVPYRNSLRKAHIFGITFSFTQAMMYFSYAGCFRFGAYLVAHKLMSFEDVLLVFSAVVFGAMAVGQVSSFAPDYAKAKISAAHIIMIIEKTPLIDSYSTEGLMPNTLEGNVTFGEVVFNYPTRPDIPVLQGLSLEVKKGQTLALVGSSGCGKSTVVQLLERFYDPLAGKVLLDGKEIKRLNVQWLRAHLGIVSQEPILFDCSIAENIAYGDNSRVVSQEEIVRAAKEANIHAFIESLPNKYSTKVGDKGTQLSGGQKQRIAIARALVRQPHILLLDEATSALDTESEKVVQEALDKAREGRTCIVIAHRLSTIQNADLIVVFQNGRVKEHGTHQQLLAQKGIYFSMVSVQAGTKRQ

[15] = Drug localization in mitochondria of human HepG2 cells at 20 uM incubated for 2 hrs by mitotracker 633 staining based inverted confocal microscope; type: ADME; conditions: hepg2, 2 h
[16] = Drug localization in mitochondria of human HepG2/ADM cells at 20 uM incubated for 2 hrs by mitotracker 633 staining based inverted confocal microscope; type: ADME
[17] = Drug accumulation in human L02 cells at 10 uM incubated for 3 hrs by flow cytometric analysis; type: ADME, cell-based; conditions: l02, 3 h
[18] = biological target: T1, ATP-dependent translocase ABCB1; experiment: Inhibition of Pgp in human HepG2/ADM cells assessed as increase in intracellular ADM level at 20 uM incubated for 12 hrs by flow cytometric analysis; type: cell-based
[19] = biological target: T1, ATP-dependent translocase ABCB1; experiment: Inhibition of Pgp in human HepG2/ADM cells at 20 uM incubated for 2 hrs by mitotracker 633 staining based inverted confocal microscopy; type: cell-based
[20] = Drug localization in cellular membrane of human HepG2 cells at 20 uM incubated for 2 hrs by mitotracker 633 staining based inverted confocal microscope; type: ADME, cell membranes; conditions: hepg2, 2 h
[21] = Drug accumulation in human HepG2 cells at 10 uM incubated for 3 hrs by flow cytometric analysis; type: ADME, cell-based; conditions: hepg2, 3 h
HepG2/Adm [22] = experiment: Downregulation of MDR1 mRNA in human HepG2/ADM cells at 5 to 20 uM incubated for 24 hrs by real time qPCR analysis; type: functional, cell-based

| Structure (SMILES) | Activity [1] [%] | Activity [2] [%] | IC50 (L02) [µM] | IC50 (NIH3T3) [µM] | Activity [3] [%] | IC50 (HepG2) [µM] | Activity [4] [%] | Activity [5] [%] | viability at 20 µM [6] [%] | IC50 [7] [µM] | Activity [8] [%] | Activity [9] [%] | also measured |
| --- | --- | --- | --- | --- | --- | --- | --- | --- | --- | --- | --- | --- | --- |
| Cl.NCCC[n+]1ccc(/C=C/c2c[nH]c3ccc(F)cc23)cc1.[Br-] | 2.66 | 1.21 | > 600 | > 600 | 26.2 | 103 | 0.25 | 88.4 | 55.6 | 102 | 17 | 8.72 |  |
| COc1cccc2c1C(=O)c1c(O)c3c(c(O)c1C2=O)C[C@@](O)(C(=O)CO)C[C@@H]3O[C@H]1C[C@H](N)[C@H](O)[C@H](C)O1.Cl [DOXORUBICIN HYDROCHLORIDE] |  |  |  |  |  | 0.67 |  |  |  | 144 |  |  | Ratio IC50 [10]: 215.4 |
| O=C(O)CCCc1ccc(N(CCCl)CCCl)cc1 [CHLORAMBUCIL] | 0.01 | 0 | > 600 | > 600 | 12.4 | 190 | 0.01 | 90.9 | 87.5 | 297 | 0.05 | 9.08 |  |
| O=C(CCCc1ccc(N(CCCl)CCCl)cc1)NCCC[n+]1ccc(/C=C/c2c[nH]c3ccc(F)cc23)cc1.[Br-] | 0.09 | 0 | > 600 | > 600 | 64 | 60 | 0.01 | 85.7 | 33.5 | 60.5 | 2.38 | 14.2 | Activity (HepG2/Adm [11]): Active; Activity (HepG2/Adm [12]): Active; Drug uptake [13]: Active; inhibition (INH) [14]: Active; Drug uptake [15]: Active; Drug uptake [16]: Active; Drug uptake [17]: Not Active; inhibition (INH) [18]: Active; inhibition (INH) [19]: Active; Drug uptake [20]: Active; Drug uptake [21]: Active; Activity (HepG2/Adm [22]): Active |

— ChEMBL document CHEMBL4433196, “A novel delocalized lipophilic cation-chlorambucil conjugate inhibits P-glycoprotein in HepG2/ADM cells” (Bioorg Med Chem, 2017)
